Converted amounts (≈) assume the structure as drawn.
What was measured:
[1] = test system: Coagulase-negative Staphylococus sp., methicillin susceptible; assay: Standard microdilution susceptibility test, clinical isolates; format: cell-based; settings: 10 clinical isolates; for MIC50: read-out: MIC 50%; for MIC90: read-out: MIC 90%
[2] = test system: Streptococcus viridans sp.; assay: as above; format: cell-based; settings: 20 clinical isolates; for MIC50 / MIC90: Streptococcus viridans; for MIC50: read-out: MIC 50%; for MIC90: read-out: MIC 90%
[3] = test system: Streptococcus pneumoniae, penicillin susceptible; assay: as above; format: cell-based; settings: for MIC Range / Ratio of Sensitive/Total / MIC50 / MIC90 / MIC 50% / MIC 90%: 10 clinical isolates; for MIC50 / MIC90: Streptococcus pneumoniae; for MIC50: read-out: MIC 50%; for MIC90: read-out: MIC 90%; for MIC: single isolate
[4] = test system: Enterococcus sp., vancomycin susceptible; assay: as above; format: cell-based; settings: 20 clinical isolates; for MIC50 / MIC90: Enterococcus; for MIC50: read-out: MIC 50%; for MIC90: read-out: MIC 90%
[5] = test system: Enterococcus sp., decreased vancomycin susceptibility; assay: as above; format: cell-based; settings: 5 clinical isolates
[6] = test system: Coagulase-negative Staphylococus sp., methicillin resistant; assay: as above; format: cell-based; settings: 10 clinical isolates; for MIC50: read-out: MIC 50%; for MIC90: read-out: MIC 90%
[7] = test system: Streptococcus pneumoniae, penicillin resistant; assay: as above; format: cell-based; settings: for MIC50 / MIC90: Streptococcus pneumoniae; for MIC50: read-out: MIC 50%; for MIC90: read-out: MIC 90%
[8] = test system: Staphylococcus aureus, methicillin susceptible; assay: as above; format: cell-based; settings: 10 clinical isolates; for MIC50 / MIC90: Staphylococcus aureus; for MIC50: read-out: MIC 50%; for MIC90: read-out: MIC 90%
[9] = test system: Staphylococcus aureus, methicillin resistant; assay: as above; format: cell-based; settings: 10 clinical isolates; for MIC50 / MIC90: Staphylococcus aureus; for MIC50: read-out: MIC 50%; for MIC90: read-out: MIC 90%
Micrococcus spp. = settings: cited from earlier work
Staphylococcus capitis = settings: cited from earlier work
[10] = test system: Staphylococcus aureus 7503; settings: cited from earlier work
[11] = test system: Staphylococcus hominis 7835; settings: cited from earlier work
Diphteroides 8264 = settings: cited from earlier work
[12] = test system: Staphylococcus epidermidis 7586; settings: cited from earlier work
Escherichia coli B 1218 = settings: cited from earlier work
Streptococcus mitis 5728 = settings: cited from earlier work
[13] = test system: Staphylococcus saprophyticus 8454; settings: cited from earlier work
[14] = test system: Bacillus subtilis ATCC 6633; settings: cited from earlier work
[15] = test system: Enterobacter cloacae B 520; settings: cited from earlier work
[16] = test system: Streptococcus simulans 7866; settings: cited from earlier work
[17] = test system: Serotype β Streptococcus 8252; settings: cited from earlier work
Propionibacterium acnes = settings: cited from earlier work
[18] = test system: Staphylococcus aureus ATCC 25923; settings: cited from earlier work

CC1COc2c(N3CCN(C)CC3)c(F)cc3c(=O)c(C(=O)O)cn1c23 (centres unmarked) [Ofloxacin]
MIC Range [1]: 0.25 to 1 µg/mL
Ratio of Sensitive/Total [1]: 10/10
MIC50 [1]: 1 µg/mL (≈ 2.77 µM)
MIC90 [1]: 1 µg/mL (≈ 2.77 µM)
MIC Range [2]: 1 to 8 µg/mL
Ratio of Sensitive/Total [2]: 14/20
MIC50 [2]: 2 µg/mL (≈ 5.53 µM)
MIC90 [2]: 4 µg/mL (≈ 11.1 µM)
MIC Range [3]: 1 to 4 µg/mL
Ratio of Sensitive/Total [3]: 9/10
MIC50 [3]: 2 µg/mL (≈ 5.53 µM)
MIC90 [3]: 2 µg/mL (≈ 5.53 µM)
Ratio of Sensitive/Total [4]: 3/20
MIC50 [4]: 4 µg/mL (≈ 11.1 µM)
MIC90 [4]: > 16 µg/mL
MIC Range [5]: 2 to 8 µg/mL
Ratio of Sensitive/Total [5]: 2/5
Ratio of Sensitive/Total [6]: 0/10
MIC50 [6]: > 16 µg/mL
MIC90 [6]: > 16 µg/mL
MIC Range ([7]; 10 clinical isolates): 1 to 2 µg/mL
Ratio of Sensitive/Total ([7]; 10 clinical isolates): 10/10
MIC50 ([7]; 10 clinical isolates): 1 µg/mL (≈ 2.77 µM)
MIC90 ([7]; 10 clinical isolates): 2 µg/mL (≈ 5.53 µM)
MIC Range [8]: 0.5 to 1 µg/mL
Ratio of Sensitive/Total [8]: 10/10
MIC50 [8]: 0.5 µg/mL (≈ 1.38 µM)
MIC90 [8]: 1 µg/mL (≈ 2.77 µM)
Ratio of Sensitive/Total [9]: 1/10
MIC50 [9]: 16 µg/mL (≈ 44.3 µM)
MIC90 [9]: > 16 µg/mL

CN(C)[C@@H]1C(O)=C(C(N)=O)C(=O)[C@@]2(O)C(O)=C3C(=O)c4c(O)cccc4[C@@](C)(O)[C@H]3[C@H](O)[C@@H]12 [Oxytetracycline]
Ratio of Sensitive/Total [1]: 9/10
MIC50 [1]: 0.25 µg/mL (≈ 0.543 µM)
MIC90 [1]: 1 µg/mL (≈ 2.17 µM)
Ratio of Sensitive/Total [2]: 10/20
MIC50 [2]: 4 µg/mL (≈ 8.69 µM)
MIC90 [2]: > 32 µg/mL
MIC Range [3]: 1 to 8 µg/mL
Ratio of Sensitive/Total [3]: 8/10
MIC50 [3]: 1 µg/mL (≈ 2.17 µM)
MIC90 [3]: 8 µg/mL (≈ 17.4 µM)
Ratio of Sensitive/Total [4]: 6/20
MIC50 [4]: 16 µg/mL (≈ 34.7 µM)
MIC90 [4]: 32 µg/mL (≈ 69.5 µM)
MIC Range [5]: 0.25 to 16 µg/mL
Ratio of Sensitive/Total [5]: 2/5
Ratio of Sensitive/Total [6]: 8/10
MIC50 [6]: 1 µg/mL (≈ 2.17 µM)
MIC90 [6]: > 32 µg/mL
Ratio of Sensitive/Total ([7]; 10 clinical isolates): 1/10
MIC50 ([7]; 10 clinical isolates): 32 µg/mL (≈ 69.5 µM)
MIC90 ([7]; 10 clinical isolates): > 32 µg/mL
MIC Range [8]: 0.25 to 32 µg/mL
Ratio of Sensitive/Total [8]: 8/10
MIC50 [8]: 0.25 µg/mL (≈ 0.543 µM)
MIC90 [8]: 32 µg/mL (≈ 69.5 µM)
MIC Range [9]: 0.125 to 0.25 µg/mL
Ratio of Sensitive/Total [9]: 10/10
MIC50 [9]: 0.25 µg/mL (≈ 0.543 µM)
MIC90 [9]: 0.25 µg/mL (≈ 0.543 µM)

[H]/N=C(/N)N[C@H]1[C@H](O)[C@@H](O)[C@H](O[C@@H]2O[C@@H](C)[C@](O)(C=O)[C@H]2O[C@@H]2O[C@@H](CO)[C@H](O)[C@@H](O)[C@@H]2NC)[C@@H](N/C(N)=N\[H])[C@@H]1O [Streptomycin]
MIC (Micrococcus spp.): 3.9 µg/mL (≈ 6.71 µM)
MIC (Staphylococcus capitis): 3.9 µg/mL (≈ 6.71 µM)
MIC [10]: 2.0 µg/mL (≈ 3.44 µM)
MIC [11]: 2.0 µg/mL (≈ 3.44 µM)
MIC (Diphteroides 8264): >250 µg/mL
MIC [12]: 2.0 µg/mL (≈ 3.44 µM)
MIC (Escherichia coli B 1218): 15.6 µg/mL (≈ 26.8 µM)
MIC (Streptococcus mitis 5728): 250 µg/mL (≈ 430 µM)
MIC [13]: 1.0 µg/mL (≈ 1.72 µM)
MIC [14]: 1.0 µg/mL (≈ 1.72 µM)
MIC [15]: 7.8 µg/mL (≈ 13.4 µM)
MIC [16]: 2.0 µg/mL (≈ 3.44 µM)
MIC [17]: 3.9 µg/mL (≈ 6.71 µM)
MIC (Propionibacterium acnes): <0.5 µg/mL
MIC [18]: 3.9 µg/mL (≈ 6.71 µM)

NC[C@H]1O[C@H](O[C@H]2[C@H](O)[C@@H](O[C@H]3O[C@H](CO)[C@@H](O)[C@H](N)[C@H]3O)[C@H](N)C[C@@H]2N)[C@H](N)C[C@@H]1O [Tobramycin]
MIC Range [1]: 0.06 to 4 µg/mL
Ratio of Sensitive/Total [1]: 10/10
MIC50 [1]: 0.06 µg/mL (≈ 0.128 µM)
MIC90 [1]: 4 µg/mL (≈ 8.56 µM)
MIC Range [2]: 4 to 32 µg/mL
Ratio of Sensitive/Total [2]: 1/20
MIC50 [2]: 16 µg/mL (≈ 34.2 µM)
MIC90 [2]: 32 µg/mL (≈ 68.4 µM)
MIC Range [3]: 16 to 32 µg/mL
Ratio of Sensitive/Total [3]: 0/10
MIC50 [3]: 16 µg/mL (≈ 34.2 µM)
MIC90 [3]: 32 µg/mL (≈ 68.4 µM)
Ratio of Sensitive/Total [4]: 0/20
MIC50 [4]: 16 µg/mL (≈ 34.2 µM)
MIC90 [4]: > 32 µg/mL
Ratio of Sensitive/Total [5]: 0/5
Ratio of Sensitive/Total [6]: 5/10
MIC50 [6]: 0.06 µg/mL (≈ 0.128 µM)
MIC90 [6]: > 32 µg/mL
Ratio of Sensitive/Total ([7]; 10 clinical isolates): 0/10
MIC50 ([7]; 10 clinical isolates): 32 µg/mL (≈ 68.4 µM)
MIC90 ([7]; 10 clinical isolates): > 32 µg/mL
MIC Range [8]: 0.5 to 1 µg/mL
Ratio of Sensitive/Total [8]: 10/10
MIC50 [8]: 0.5 µg/mL (≈ 1.07 µM)
MIC90 [8]: 0.5 µg/mL (≈ 1.07 µM)
Ratio of Sensitive/Total [9]: 6/10
MIC50 [9]: 1 µg/mL (≈ 2.14 µM)
MIC90 [9]: > 32 µg/mL

Gentamicin
MIC 50% [1]: 0.125 µg/mL
MIC 90% [1]: 4 µg/mL
MIC Range [1]: 0.03 to 8 µg/mL
Ratio of Sensitive/Total [1]: 9/10
MIC 50% [2]: 8 µg/mL
MIC 90% [2]: 16 µg/mL
Ratio of Sensitive/Total [2]: 9/20
MIC 50% [3]: 16 µg/mL
MIC 90% [3]: 16 µg/mL
MIC Range [3]: 8 to 16 µg/mL
Ratio of Sensitive/Total [3]: 0/10
MIC 50% [4]: 8 µg/mL
MIC 90% [4]: >16 µg/mL
Ratio of Sensitive/Total [4]: 1/20
MIC Range [5]: 8 to 16 µg/mL
Ratio of Sensitive/Total [5]: 0/5
MIC 50% [6]: 0.125 µg/mL
MIC 90% [6]: >16 µg/mL
Ratio of Sensitive/Total [6]: 6/10
MIC 50% ([7]; 10 clinical isolates): 16 µg/mL
MIC 90% ([7]; 10 clinical isolates): >16 µg/mL
Ratio of Sensitive/Total ([7]; 10 clinical isolates): 0/10
MIC 50% [8]: 0.5 µg/mL
MIC 90% [8]: 0.5 µg/mL
MIC Range [8]: 0.25 to 0.5 µg/mL
Ratio of Sensitive/Total [8]: 10/10
MIC 50% [9]: 0.5 µg/mL
MIC 90% [9]: 0.5 µg/mL
MIC Range [9]: 0.25 to 1 µg/mL
Ratio of Sensitive/Total [9]: 10/10

Neomycin
MIC 50% [1]: 0.25 µg/mL
MIC 90% [1]: 1 µg/mL
MIC Range [1]: 0.06 to 4 µg/mL
Ratio of Sensitive/Total [1]: 10/10
MIC 50% [2]: >32 µg/mL
MIC 90% [2]: >32 µg/mL
Ratio of Sensitive/Total [2]: 0/20
MIC 50% [3]: >32 µg/mL
MIC 90% [3]: >32 µg/mL
Ratio of Sensitive/Total [3]: 0/10
MIC 50% [4]: >32 µg/mL
MIC 90% [4]: >32 µg/mL
Ratio of Sensitive/Total [4]: 0/20
Ratio of Sensitive/Total [5]: 0/5
MIC 50% [6]: 0.25 µg/mL
MIC 90% [6]: 16 µg/mL
Ratio of Sensitive/Total [6]: 8/10
MIC 50% ([7]; 10 clinical isolates): >32 µg/mL
MIC 90% ([7]; 10 clinical isolates): >32 µg/mL
Ratio of Sensitive/Total ([7]; 10 clinical isolates): 0/10
MIC 50% [8]: 1 µg/mL
MIC 90% [8]: 2 µg/mL
MIC Range [8]: 0.5 to 2 µg/mL
Ratio of Sensitive/Total [8]: 10/10
MIC 50% [9]: 1 µg/mL
MIC 90% [9]: >32 µg/mL
Ratio of Sensitive/Total [9]: 5/10

Penicillin
MIC ([3]; serotype 3): 0.015 µg/mL
MIC ([3]; serotype 4): 0.015 µg/mL
MIC ([3]; serotype 7F): 0.015 µg/mL
MIC ([3]; serotype 8): 0.015 µg/mL
MIC ([3]; serotype 9(V)): 0.03 µg/mL
MIC ([3]; serotype 11(A)): 0.06 µg/mL
MIC ([3]; serotype 19F): 0.03 µg/mL
MIC ([3]; serotype 23(F)): 0.015 µg/mL
MIC ([7]; single isolate, serotype 23(F)): 2 µg/mL

Reference: patent US20140303105A1, “Primycin and components thereof for use in the treatment or prevention of infections caused by specific pathogens” (PANNONPHARMA GYÓGYSZERGYÁRTÓ ZRT., priority 2011, published 2014)
